Measured values reported in patent publication US20050124696A1, “Pharmaceutical compositions” (priority 2001, published 2005).

Columns and labels:
Sendai virus = assay: Replication of Sendai virus in 37RC cells (HAU titration of virus yield); type: cell-based; conditions: Respirovirus muris, Sendai virus yield at 24 hours after infection, read-out: ID50 (50% inhibitory dose/concentration)
uninfected cells = assay: Toxicity to uninfected cells compared with the anti-viral concentration; type: cell-based
NF-κB [1] = assay: NF-κB-dependent luciferase reporter gene assay in HeLa κB-transformed cells, TPA stimulated; type: cell-based; conditions: Homo sapiens; HeLa NF-κB-STM luciferase, 8 h treatment, TPA 25 ng/ml 2 h after exposure; read-out: NF-κB; IC50 (concentration at which the tested compound halved the NF-κB activity)
Description: (§1) Method: HeLa cell clone 13B, stably transfected with a luciferase reporter plasmid controlled by the human hsp70 promoter, and HeLa κB-transformed cells, stably transfected with a luciferase reporter plasmid controlled by a synthetic NF-κB-STM construct, were maintained in DMEM medium supplemented with 10% FBS, L-glutamine (2 mM) and G418 (250 μg/ml) at 37° C. in a 5% CO2 humidified atmosphere.
(§2) Cells were seeded at a density of 4×10^4 cells/well in 96-well plates. After 18-20 h, the medium was removed and cells were treated for 8 h with the test compounds (100 μl) at the appropriate dilutions in serum-free medium. For the NF-κB-dependent reporter gene assay, cells were stimulated with TPA (25 ng/ml) 2h after exposure to the compounds.
(§3) After incubation, the medium was removed and cells were lysed in 10 μl of lysis buffer. The luciferase activity was determined by adding 100 μl of substrate and measuring the release of light using a Victor 1420 microplate reader (Wallac, Finland).
The fragment Kpn I-BamH I from the pGL3 basic vector containing the luciferase gene (PROMEGA) was inserted in the pcDNA3 vector (INVITROGEN) digested with Bgl II-KpnI. (This digestion removes the CMV-promoter from pcDNA3.) The resulting new vector was digested with Kpn I-Hind III and a promoter containing a ‘5×NF-κB binding sites—TATA box’ sequence was inserted upstream of the luciferase gene. […]

HSF = assay: hsp70 promoter luciferase reporter assay in HeLa cell clone 13B (HSF activation); type: cell-based, human; conditions: HeLa clone 13B, 8 h treatment
Description: as §1, §2, §3
The AC200/μM for HSF is the concentration at which the tested compound doubled the HSF activity in this assay. The IC50/μM for NF-κB is the concentration at which the tested compound halved the NF-κB activity in this assay.

in vitro = type: cell-based; conditions: human
Description: HeLa cells were plated in 96-well microtiter plates in 100 μl culture medium (4×10^4/well). After 20 hours, the cells were exposed to the test compounds at different dilutions and incubated for the next 8 h at 37° C. in a 5% CO2 humidified atmosphere. After 6 h incubation, the Alamar Blue was added in an amount equal to 10% of the culture volume (10 μl). Two hours after the addition of the Alamar Blue, the fluorescence was measured using a Victor 1420 microplate reader.
The LC50/μM is the concentration at which the tested compound killed half the cells in this assay.

37RC cells = assay: Neutral Red cell viability assay; type: cell-based, monkey; conditions: uninfected 37RC cells, 24 h
Description: Cell viability was determined using the Neutral Red assay. 37RC cells were seeded at density of 6×10^4 cells/well in 24-well plates and incubated for 24 h. Confluent 37RC monolayers were treated with the test compounds at different dilutions for 24 h at 37° C. After incubation, the medium was removed and the cells were incubated with RPM1 medium containing 40 μg/ml Neutral Red dye (500 μl/well). After 2 h at 37° C., the monolayers were washed with phosphate-buffered saline (PBS) and then with a solution containing 1% CaCl2 and 0.5% formaldehyde. After washing, a solution containing 1% acetic acid/50% ethanol was added to the monolayers (250 μl/well). After 10 min at room temperature, the absorbance was determined with a microplate reader (Victor 1420, Wallac) at 540 nm.

NF-κB [2] = conditions: chemical or physiological inducers; 'at the same concentration'; cited from earlier work
HSF1 = conditions: cited from earlier work
NF-κB [3] = assay: Luciferase activity of resistant HeLa NF-κB-LUC cell pool after stimulation; type: cell-based, human; conditions: quadruplicate samples, control 1369±149
Text: The fragment Kpn I-BamH I from the pGL3 basic vector containing the luciferase gene (PROMEGA) was inserted in the pcDNA3 vector (INVITROGEN) digested with Bgl II-KpnI. (This digestion removes the CMV-promoter from pcDNA3.) The resulting new vector was digested with Kpn I-Hind III and a promoter containing a ‘5×NF-κB binding sites—TATA box’ sequence was inserted upstream of the luciferase gene. This vector has been named STM.
To obtain stable HeLa cell lines expressing the luciferase gene under the control of NF-κB, HeLa cells were transfected (using lipofectamine plus GIBCO) with the STM-Pvu I linearized vector, and selected for 20 days with G418 (800 μg/ml). After selection, the resistant HeLa cell pool was controlled (in quadruplicate samples) for luciferase activity after stimulation with TNFα, IL-1 and TPA. The respective luciferase activities were: • 1) Control: 1369±149 • 2) TNFα: 6111±1231 • 3) IL-1: 11814±1151 • 4) TPA: 7181±444 Clones were selected.

Compound: CC(C)(C)[Si](C)(C)OC1CC=CC(=O)C1 (stereo not drawn) [Compound B, 5-tert-butyldimethylsilyloxy-cyclohex-2-en-1-one]
- IC50 (Sendai virus): 400 nM
- concentration of anti-viral effect relative to the concentration toxic to uninfected cells (uninfected cells): below that at which they were toxic to uninfected cells

Compound: COC(=O)C(CSC1CC(=O)CC(O[Si](C)(C)C(C)(C)C)C1)NC(=O)OC(C)(C)C (stereo not drawn) [CTM-78, 2-tert-Butoxycarbonylamino-3-[3-(tert-butyl-dimethyl-silanyloxy)-5-oxo-cyclohexylsulfanyl]-propionic acid methyl ester]
- IC50 (NF-κB [1]): 22000 nM
- IC50 (Sendai virus): 3000 nM
- HSF; AC200 (concentration at which the tested compound doubled the HSF activity) (HSF): 45 µM
- CC50 at 8 h (in vitro): > 800000 nM
- LD50 (50% lethal dose/concentration) (37RC cells): 18.6 µM

Compound: COC(=O)[C@H](CS[C@H]1CC(=O)CC[C@@H]1O[Si](C)(C)C(C)(C)C)NC(=O)OC(C)(C)C [CTM-68, 2-tert-Butoxycarbonylamino-3-[2-(tert-butyl-dimethyl-silanyloxy)-5-oxo-cyclohexylsulfanyl]-propionic acid methyl ester]
- IC50 (NF-κB [1]): 17000 nM
- IC50 (Sendai virus): 1000 nM
- HSF; AC200 (concentration at which the tested compound doubled the HSF activity) (HSF): 98 µM
- CC50 at 8 h (in vitro): > 800000 nM
- LD50 (50% lethal dose/concentration) (37RC cells): 9.8 µM

Compound: O=C1C=CCC1 [cyclopent-2-en-1-one]
- concentration shown to block NF-κB activation (NF-κB [2]): 125 to 500 µM
- concentration shown to activate HSF1 and trigger synthesis of HSP70 (HSF1): 125 to 500 µM

Compound: CCCCCCCCCCCCCC(=O)O[C@@H]1[C@@H](C)[C@@]2(O)[C@@H](C=C(CO)C[C@]3(O)C(=O)C(C)=C[C@@H]23)[C@@H]2C(C)(C)[C@]12OC(C)=O [TPA, 12-O-tetradecanoylphorbol-13-acetate]
- luciferase activity after stimulation (NF-κB [3]): 7181±444

Compound: TNFα
- luciferase activity after stimulation (NF-κB [3]): 6111±1231

Compound: CC(C)(C)[Si](C)(C)OC1C=CC(=O)CC1 (stereo not drawn) [Compound A, 4-tert-butyldimethylsilyloxy-cyclohex-2-en-1-one]
- IC50 (Sendai virus): 1000 nM
- concentration of anti-viral effect relative to the concentration toxic to uninfected cells (uninfected cells): below that at which they were toxic to uninfected cells
